target: V1 receptor (Rattus norvegicus, UniProt P30560); experiment: biochemical; type: binding; details: not given
Sequence (P30560 whole entry): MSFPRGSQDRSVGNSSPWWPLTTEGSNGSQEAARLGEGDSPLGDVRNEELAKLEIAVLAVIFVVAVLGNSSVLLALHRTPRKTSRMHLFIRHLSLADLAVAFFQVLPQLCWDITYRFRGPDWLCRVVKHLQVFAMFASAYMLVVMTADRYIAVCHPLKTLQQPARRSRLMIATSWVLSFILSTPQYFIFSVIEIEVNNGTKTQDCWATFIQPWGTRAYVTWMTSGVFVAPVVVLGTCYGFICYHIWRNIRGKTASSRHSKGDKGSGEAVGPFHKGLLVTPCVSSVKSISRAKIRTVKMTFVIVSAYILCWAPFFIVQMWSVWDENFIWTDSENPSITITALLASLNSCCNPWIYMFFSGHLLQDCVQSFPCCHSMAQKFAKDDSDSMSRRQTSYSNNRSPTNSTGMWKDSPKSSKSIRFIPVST

SMILES | IC50
O=C(c1ccc(OCC2CO2)cc1)N1CCC(N2C(=O)CCc3ccccc32)CC1 (centres unmarked) [Example 101, 1-[1-(4-Glycidoxybenzoyl)-4-piperidinyl]-3,4-dihydrocarbostyril] | 1600 nM
O=C(c1ccc(OCCCO)cc1)N1CCC(N2C(=O)CCc3ccccc32)CC1 [Example 32, 1-{1-[4-(3-Hydroxypropoxy)benzoyl]-4-piperidinyl}-3,4-dihydrocarbostyril] | 460 nM
O=C(c1ccc(OCCCCCN2CCC[C@H]2CO)cc1)N1CCC(N2C(=O)CCc3ccccc32)CC1 [Example 238, 1-(1-(4-[5-(2-(S)-Hydroxymethyl-1-pyrrolidinyl)pentyloxy]benzoyl)-4-piperidinyl}-3,4-dihydrocarbostyril] | 33 nM
O=C(CCCCCOc1ccc(C(=O)N2CCC(N3C(=O)CCc4ccccc43)CC2)cc1)NC1CCNCC1 [Example 210, 1-{1-[4-(5-(4-Piperidinyl)aminocarbonylpentyloxy)benzoyl]-4-piperidinyl}-3,4-dihydrocarbostyril] | 23 nM
O=C(c1ccc(OCCCCCCN2CCCCC2)cc1)N1CCC(N2C(=O)CCc3ccccc32)CC1 [Example 243, 1-{1-(4-[6-(1-Piperidinyl)hexyloxy]benzoyl)-4-piperidinyl}-3,4-dihydrocarbostyril] | 39 nM
NC(=O)OCCCCCCOc1ccc(C(=O)N2CCC(N3C(=O)CCc4ccccc43)CC2)cc1 [Example 212, 1-{1-[4-(6-Carbamoyloxyhexyloxy)benzoyl]-4-piperidinyl}-3,4-dihydrocarbostyril] | 160 nM
COc1cc(OCCCCC(=O)N2CCS(=O)(=O)CC2)ccc1C(=O)N1CCC(N2C(=O)CCc3ccccc32)CC1 [Example 296, 1-{1-(2-Methoxy-4-[4-(4,4-dioxothiomorpholino)carbonylbutyloxy]benzoyl]-4-piperidinyl}-3,4-dihydrocarbostyril] | 73 nM
COC1(CNCCCCCCOc2ccc(C(=O)N3CCC(N4C(=O)CCc5ccccc54)CC3)cc2)OCC(O)C(O)C1O (centres unmarked) [Example 267, 1-{1-(4-[6-(N-(2-Methoxy-3,4,5-trihydroxytetrahydropyran-2-yl)methylamino)hexyloxy]benzoyl)-4-piperidinyl}-3,4-dihydrocarbostyril] | 82 nM
CC(=O)Nc1ccc(S(=O)(=O)CCCCCOc2ccc(C(=O)N3CCC(N4C(=O)CCc5ccccc54)CC3)cc2)cc1 [Example 289, 1-{1-(4-[5-(4-Acetylaminophenylsulfonyl)pentyloxy]benzoyl)-4-piperidinyl}-3,4-dihydrocarbostyril] | 100 nM
COc1ccc(N2CCN(CCCOc3ccc(C(=O)N4CCC(N5C(=O)CCc6ccccc65)CC4)cc3)CC2)cc1 [Example 86, 1-{1-[4-(3-[4-(4-Methoxyphenyl)-1-piperazinyl]propoxy)benzoyl]-4-piperidinyl)-3,4-dihydrocarbostyril] | 570 nM
O=C(c1ccc(N2CCCC2)cc1)N1CCC(N2C(=O)CCc3ccccc32)CC1 [Example 91, 1-{1-[4-(1-Pyrrolidinyl)benzoyl]-4-piperidinyl}-3,4-dihydrocarbostyril] | 720 nM
CCCC(NC(C)=O)C(=O)NCCCOc1ccc(C(=O)N2CCC(N3C(=O)CCc4ccccc43)CC2)cc1 (centres unmarked) [Example 182, 1-{1-[4-(3-[2-(Acetylamino)valerylamino]propoxy)benzoyl]-4-piperidinyl}-3,4-dihydrocarbostyril] | 120 nM
CS(=O)(=O)NCCCCOc1ccc(C(=O)N2CCC(N3C(=O)CCc4ccccc43)CC2)cc1 [Example 28, 1-{1-[4-(4-Methylsulfonylaminobutoxy)benzoyl]-4-piperidinyl}-3,4-dihydrocarbostyril] | 160 nM
CNC(=O)CNc1cc(OC)ccc1C(=O)N1CCC(N2C(=O)CCc3ccccc32)CC1 [Example 105, 1-[1-(4-Methoxy-2-methylaminocarbonylmethylamino)-4-piperidinyl]-3,4-dihydrocarbostyril] | 1200 nM
COc1ccc(C(=O)N2CCC(N3C(=O)CCc4ccccc43)CC2)c(NC(=O)OCc2ccccc2)c1 [Example 103, 1-[1-(4-Methoxy-2-benzyloxycarbonylaminobenzoyl)-4-piperidinyl]-3,4-dihydrocarbostyril] | 700 nM
NC(=O)[C@H](Cc1ccc(O)cc1)NC(=O)CCCCCOc1ccc(C(=O)N2CCC(N3C(=O)CCc4ccccc43)CC2)cc1 [Example 146, 1-{1-[4-{5-[1-(S)-Carbamoyl-2-(4-hydroxyphenyl)]ethylaminocarbonylpentyloxy}benzoyl]-4-piperidinyl}-3,4-dihydrocarbostyril] | 73 nM
CN(C)CCN(CCCCCOc1ccc(C(=O)N2CCC(N3C(=O)CCc4ccccc43)CC2)cc1)Cc1ccccc1 [Example 248, 1-{1-(4-[5-(N-(2-Dimethylaminoethyl)-N-benzylamino)pentyloxy]benzoyl)-4-piperidinyl}-3,4-dihydrocarbostyril] | 34 nM
CN(C)c1ccc(C(=O)N2CCC(N3C(=O)CCc4ccccc43)CC2)c(N(C)C)c1 [Example 50, 1-{1-[2,4-Bis(N,N-dimethylamino)benzoyl]-4-piperidinyl}-3,4-dihydrocarbostyril] | 400 nM
CC(=O)NCC(=O)NCCCCOc1ccc(C(=O)N2CCC(N3C(=O)CCc4ccccc43)CC2)cc1 [Example 25] | 240 nM

SMILES | IC50
O=C(c1ccc(CCCCO)cc1)N1CCC(N2C(=O)CCc3ccccc32)CC1 [Example 123, 1-{1-[4-(4-Hydroxybutyl)benzoyl]-4-piperidinyl}-3,4-dihydrocarbostyril] | 350 nM
O=C(c1cnc2ccccc2c1)N1CCC(N2C(=O)CCc3ccccc32)CC1 [Example 117, 1-[1-(3-quinolylcarbonyl)-4-piperidinyl]-3,4-dihydrocarbostyril] | 1500 nM
CC(=O)Nc1ccc(C(=O)NCCCCCOc2ccc(C(=O)N3CCC(N4C(=O)CCc5ccccc54)CC3)cc2)cc1 [Example 259, 1-{1-(4-[5-(4-Acetylaminobenzoyl)aminopentyloxy]benzoyl)-4-piperidinyl}-3,4'-dihydrocarbostyril] | 110 nM
NC(=O)CCCOc1ccc(C(=O)N2CCC(N3C(=O)CCc4ccccc43)CC2)cc1 [Example 7, 1-{1-[4-(3-Carbamoylpropoxy)benzoyl]-4-piperidinyl}-3,4-dihydrocarbostyril] | 310 nM
O=C(CCCCCOc1ccc(C(=O)N2CCC(N3C(=O)CCc4ccccc43)CC2)cc1)NC1CCN(Cc2ccccc2)CC1 [Example 200, 1-{1-[4-(5-(1-Benzyl-4-piperidinyl)aminocarbonylpentyloxy)benzoyl]-4-piperidinyl}-3,4-dihydrocarbostyril] | 34 nM
COC(=O)[C@H](C)NC(=O)CCCOc1ccc(C(=O)N2CCC(N3C(=O)CCc4ccccc43)CC2)cc1 [Example 11, Methyl N-[4-{4-[4-(1,2,3,4-tetrahydro-2-oxo-1-quinolyl)-1-piperidinylcarbonyl]phenoxy}]butanoyl-L-alanate] | 300 nM
CC(=O)OCCCCCCOc1ccc(C(=O)N2CCC(N3C(=O)CCc4ccccc43)CC2)cc1 [Example 130, 1-{1-[4-(6-Acetoxyhexyloxy)benzoyl]-4-piperidinyl}-3,4-dihydrocarbostyril] | 390 nM
CCS(=O)(=O)CCCOc1ccc(C(=O)N2CCC(N3C(=O)CCc4ccccc43)CC2)cc1 [Example 143, 1-{1-[4-(3-Ethylsulfonylpropoxy)benzoyl]-4-piperidinyl}-3,4-dihydrocarbostyril] | 550 nM
CN1CCN(CC(=O)NCCCCCOc2ccc(C(=O)N3CCC(N4C(=O)CCc5ccccc54)CC3)cc2)CC1 [Example 254, 1-{1-(4-[5-(2-(4-Methyl-1-piperazinyl)acetylamino)pentyloxy]benzoyl)-4-piperidinyl}-3,4-dihydrocarbostyril] | 60 nM
CN(C)CC(O)CCCCCCOc1ccc(C(=O)N2CCC(N3C(=O)CCc4ccccc43)CC2)cc1 (centres unmarked) [Example 187, 1-{1-[4-(7-Hydroxy-8-dimethylaminooctyloxy)benzoyl]-4-piperidinyl}-3,4-dihydrocarbostyril] | 40 nM
CN(C)CCNC(=O)CCCCCOc1ccc(C(=O)N2CCC(N3C(=O)CCc4ccccc43)CC2)cc1 [Example 199, 1-[1-[4-(5-(2-Dimethylaminoethyl)aminocarbonylpentyloxy)benzoyl]-4-piperidinyl}-3,4-dihydrocarbostyril] | 55 nM
CN(C)CC(O)CCCCOc1ccc(C(=O)N2CCC(N3C(=O)CCc4ccccc43)CC2)cc1 (centres unmarked) [Example 131, 1-{1-[4-(6-Dimethylamino-5-hydroxyhexyloxy)benzoyl]-4-piperidinyl}-3,4-dihydrocarbostyril] | 66 nM
O=C(c1ccc(OCCCCCN2CCN(c3ncccn3)CC2)cc1)N1CCC(N2C(=O)CCc3ccccc32)CC1 [Example 233, 1-{1-(4-[5-(4-[2-Pyrimidyl]-1-piperazinyl)pentyloxy]benzoyl)-4-piperidinyl}-3,4-dihydrocarbostyril] | 210 nM
O=C(c1ccc(OCCCCC(O)CN2CCN(c3ccccc3)CC2)cc1)N1CCC(N2C(=O)CCc3ccccc32)CC1 (centres unmarked) [Example 205, 1-{1-[4-(5-Hydroxy-6-(4-phenyl-1-piperazinyl)hexyloxy)benzoyl]-4-piperidinyl}-3,4-dihydrocarbostyril] | 120 nM
CS(=O)(=O)NCCCOc1ccc(C(=O)N2CCC(N3C(=O)CCc4ccccc43)CC2)cc1 [Example 22, 1-{1-[4-(3-Methylsulfonylaminopropoxy)benzoyl]-4-piperidinyl}-3,4-dihydrocarbostyril] | 340 nM
Cc1ccc(C(=O)N2CCC(N3C(=O)CCc4ccccc43)CC2)cc1C [Example 78, 1-[1-(3,4-Dimethylbenzoyl)-4-piperidinyl]-3,4-dihydrocarbostyril] | 400 nM
O=C(OCCCCOc1ccc(C(=O)N2CCC(N3C(=O)CCc4ccccc43)CC2)cc1)N1CCNCC1 [Example 163, 1-{1-[4-[4-(1-Piperazinyl)carbonyloxybutoxy]benzoyl]-4-piperidinyl}-3,4-dihydrocarbostyril] | 75 nM
CC(=O)N1CCC(C(=O)NCCCCOc2ccc(C(=O)N3CCC(N4C(=O)CCc5ccccc54)CC3)cc2)CC1 [Example 232, 1-{1-(4-[4-(1-Acetyl-4-piperidinylcarbonylamino)butoxy]benzoyl)-4-piperidinyl)-3,4-dihydrocarbostyril] | 120 nM

same assay, conditions: [H]3-Arg-vasopressin 2×10^-10 M, rat liver plasma membrane, 37° C., 10 minutes, pH 8.0

SMILES | IC50
O=C(c1ccc(OCCCCCn2cncn2)cc1)N1CCC(N2C(=O)CCc3ccccc32)CC1 [Example 237] | 75 nM

Source: patent US5436254A, “Carbostyril derivatives” (Otsuka Pharmaceutical Company, Ltd., priority 1989, dated 1995)
